Assay results published in US9566290B2, “Boron-containing small molecules” (Anacor Pharmaceuticals, Inc., priority 2005, dated 2017).
Values after ≈ are worked out from the molar mass of the structure shown. Values joined by “and” are separate entries in the source; they are usually repeats but may differ in a detail not shown here. Identical values can stand only once. “Also recorded” adds a separate entry of the source. Like-named read-outs stand apart in the source and are kept apart here.

Experiments:
T. rubrum = experiment: MIC in the presence of 5% keratin powder; format: cell-based, Trichophyton rubrum
Description: Many antifungal agents strongly bind to keratin which not only reduces their antifungal potency but also may restrict their penetration into the nail. The affinities of the compounds for keratin powder was determined by a method described in Tatsumi, Antimicrobial Agents and Chemotherapy, 46(12):3797-3801 (2002).
(C10) is a novel compound in development for use as a topical antifungal treatment. The purpose of this study was to determine the minimum inhibitory concentration (MIC) for (C10) against 19 test strains of fungi including: Aspergillus fumigatus (A. fumigatus), Candida Albicans (C. albicans, both fluconazole sensitive and resistant strains), Candida glabrata (C. glabrata), Candida krusei (C. krusei), Cryptococcus neoformans (C. neoformans), Candida parapsilosis (C. parapsilosis), Candida tropicalis (C. tropicalis), Epidermophyton floccosum (E. floccosum), Fusarium solani (F. solani), Malassezia furfur (M. furfur), Malassezia pachydermatis (M. pachydermatis), Malassezia sympodialis (M. sympodialis), Microsporum audouinii (M. audouinii), Microsporum canis (M. canis), Microsporum gypseum (M. gypseum), Trichophyton mentagrophytes (T. mentagrophytes), Trichophyton rubrum (T. rubrum), Trichophyton tonsurans (T. tonsurans). Fungal growth was evaluated after exposure to different concentrations of (C10). […]

[1] = Log P determination (octanol/water) by LC/MS/MS; format: physicochemical; settings: for Conc. in Octanol / Conc. in Water: partition
Description: C10 (10 μL of […]) at 2× the final concentration was added to 0.5 mL pre-saturated n-octanol and mixed. An equal volume (0.5 mL) of pre-saturated water was added, vortex mixed and then mixed on a rotating shaker for one hour and 24 h in triplicate at ca. 25° C. The organic and aqueous layers were separated by centrifugation for 5 min at ca. 2000 rpm. Twenty five […] of the octanol (top) layer were removed and placed in a pre-labeled tube. Twenty five L of the aqueous layer (bottom) were removed, taking care to avoid octanol contamination, and placed in a pro-labeled tube.
For the octanol sample, 25 μL of ethanol, 25 μL of water and 300 μL of acetonitrile containing the internal standard was added. For the water sample, 25 μL of ethanol, 25 μL of octanol and 300 μL of acetonitrile containing the internal standard [60 mL of acetonitrile add 6 μL of PNP (1000 μg/mL)] was added. For the calibrators 25 μL of octanol, 25 μL of water and 300 μL of acetonitrile containing the internal standard was added. The sample was vortexed for 10 seconds. Two hundred μL of the organic layer were transferred into a clean deactivated autosampler vial.
A 1/concentration weighted linear regression was used for the quantitation of C10. All integration were performed with peak areas using Analyst version 1.3, Applied Biosystems. For C10, peak area ratios analyte to internal standard PNP were used for all quantitation.
The partition coefficient (P) was calculated according to the equation detailed below: P=[Sample concentration]octanol/[Sample concentration]water Log P=log10(partition coefficient) Results: […]

[2] = system: S. cerevisiae ATCC201388 bearing pRS425 or CDC60 on pRS425; experiment: MIC with over-expression of wild type CDC60; format: cell-based, Saccharomyces cerevisiae; settings: for MIC: Saccharomyces cerevisiae
Text: The minimal inhibitory concentration (MIC) was essentially performed following the NCCLS guidelines outlined in the M27 protocol with the exception of using YPD or synthetic defined media (SDM).
A 4.0 kb BamH I-Sal I DNA fragment containing the entire CDC60 open reading frame (ORF) and 700 bp of upstream sequence was amplified using KOD DNA polymerase, S. cerevisiae genomic DNA (Novagen, Madison, Wis., USA), and the primers GAGGGATCCGGTTAGTTTTAGTTCGCGAGTGACCTG and GAGGTCGACGATTTCTGGTTGCTGTTTATTGATCTT (Operon, Alameda, Calif., USA). This DNA fragment was then cloned into the […] multi-copy plasmid pRS425, and transformed into S. cerevisiae ATCC201388 (Gietz, R D et al., Methods in Enzymology 305: 87-96 (2002)).

With `OB1OCc2cc(F)ccc21` [C10, 5-fluorobenzo[c][1,2]oxaborol-1(3H)-ol] as the compound, how does the “effect of addition of 5% keratin powder to the media on MIC” value (T. rubrum) read?
Its value is “did not effect the MIC”.

And the “Log P” value ([1]; 1 h, replicates)?
The value was 1.93.

And the “Log P” value ([1]; 24 h, replicates)?
The value was 1.89 and 1.91.

What about the “mean log P” value ([1]; after 24 h (n=3)) of the same compound?
The value was 1.93.

What about the logP at 1 h ([1]; n-octanol/water, 1 h, replicates, read-out: Log P) of the same compound?
The logP at 1 h was 2.04.

What about the logP at 24 h ([1]; n-octanol/water, 24 h, replicates) of the same compound?
Its logP at 24 h is 1.97.

And the logP at 1 h ([1]; n-octanol/water, after 1 h (n=3), read-out: mean log P)?
The logP at 1 h was 1.97.

What about the “Conc. in Octanol” value ([1]; 1 h, replicates) of the same compound?
Its value is 108 µg/mL and 103 µg/mL and 115 µg/mL.

What about the “Conc. in Water” value ([1]; 1 h, replicates) of the same compound?
Its value is 1.26 µg/mL and 1.21 µg/mL and 1.05 µg/mL.

What about the “Conc. in Octanol” value ([1]; 24 h, replicates) of the same compound?
Its value is 109 µg/mL and 99.0 µg/mL and 104 µg/mL.

What about the “Conc. in Water” value ([1]; 24 h, replicates) of the same compound?
Its value is 1.17 µg/mL and 1.28 µg/mL and 1.27 µg/mL.

What about the “increase in resistance (MIC) with additional copies of CDC60” value ([2]; CDC60 on multi-copy 2 μM plasmid versus same strain bearing pRS425) of the same compound?
The value was “eight times more resistant; also recorded: eight times higher; also recorded: eight-fold”.

What about the MIC ([2]; ATCC201388, CDC60 on pRS425 (20 copies)) of the same compound?
Its MIC is 1 µg/mL (≈ 6.58 µM).

And the MIC ([2]; ATCC201388, pRS425 Plasmid control)?
The MIC was 0.125 µg/mL (≈ 0.823 µM).
